Reference: patent US12522584B2, “3,4-dihydroisoquinoline compound and use thereof” (CSPC Zhongqi Pharmaceutical Technology (Shijiazhuang) Co., …, priority 2020, dated 2026)
Marks after values point to notes of the source that are not given here.

Assays:
[1] = system: human acute monocytic leukemia cell line MV4-11; assay: MV4-11 MTT cell growth inhibition; format: cell-based; settings: 144 h, MV4-11 cells, MTT on Day 6
Method: The complete medium required for the culture of human acute monocytic leukemia cell line MV4-11 (Shanghai Cell Bank) for experiment was IMDM (Cat NO. 12440-053, gibco) supplemented with 10% FBS (Cat NO. SA311.02, cellmax). The cells were cultured in an incubator at 37° C. with 5% CO2. The experiment reagents included dimethyl sulfoxide (Tianjin Kemiou Chemical Reagent Co., Ltd.) and MTT (THIAZOLYL BLUE TETRAZOLIUM BROMIDE, CAS. NO. 298-93-1, VWR). The control compound GSK3326595 for experiment was homemade or commercially available. The test compound was encapsulated and stored at 4° C.
Dimethyl sulfoxide was used as a vehicle to fully dissolve the test compound, thereby formulating a stock solution at a concentration of 5×10^−2 mol/L. The stock solution was stored at −20° C. With the complete medium as diluent, the test compound was subjected to gradient dilution to afford dilutions at different concentrations for standby application. In a 96-well culture plate, the suspension of the human acute monocytic leukemia cell line MV4-11 in the complete medium, at a volume of 100 μL/well (2×10^3 cells/well), was added. Afterwards, the dilutions at different concentrations of the corresponding test compounds (100 μL/well) were added, respectively. Each of the test compounds was provided with 8 concentration gradients and three replicates were used for each concentration. The plates were incubated in an incubator at 37° C. with 5% CO2. On Day 6, the plate was treated with MTT (20 μL/well) and incubated for 4 h in an incubator at 37° C. with 5% CO2. The supernatant was discarded. Dimethyl sulfoxide (150 μL/well) was added and mixed well by shaking. The OD value at 550 nm was measured with a microplate reader. Wells containing only cell suspensions without the test compounds were control wells, and wells containing only complete media were blank wells. The cell growth inhibition rate was calculated according to the following equation: Inhibition rate=(OD valuecontrol well−OD valuesample well)/(OD valuecontrol well−OD valueblank well)×100%. According to the inhibition rate at each concentration, the half maximal inhibitory concentration IC50 value was calculated using the SPSS software. 2. Enzymatic Experiment

MV4-11 xenografts = assay: In vivo efficacy in MV4-11 subcutaneous xenograft model
Method: Experimental female NOD-SCID mice, SPF grade, 4 to 5 weeks, were purchased from Beijing Vital River Laboratory Animal Technology Co., Ltd. The mice were intraperitoneally injected with cyclophosphamide at a dose of 100 mg/kg one day before cell inoculation. The human acute monocytic leukemia cell line MV4-11 (1×10^7/0.1 ml/mouse) was subcutaneously inoculated into forelimb axilla of mice to establish a subcutaneous xenograft model. When the tumor volumes reached about 110 mm^3 (10 days after inoculation), the mice were equally grouped according to the tumor volume, with 5 mice in each group, i.e., vehicle group (2% DMSO+98% (0.2 g/mL) hydroxypropyl-β-cyclodextrin) and test drug groups. For the test drug groups, the dose of administration was 100 mg/kg, the dosing volume was 10 mL/kg, the dosing frequency was BID, the tumor diameters were measured twice per week, and the data was recorded. The mice were administered for 11 consecutive days. When the experiment ended, the tumors were dissected and weighed.

in vivo = settings: male, SD, rat, po, 25 mg/kg
Method: SD rats (male, 180 g to 200 g, Beijing Vital River Laboratory Animal Technology Co., Ltd.) were administered with the test compounds (solvent: 2% DMSO+98% (0.2 g/mL) hydroxypropyl-β-cyclodextrin, dosing volume: 5 mL/kg) by gavage. Blood was collected from the orbits of the rats at different points in time (0.25, 0.5, 1, 2, 4, 8, 24 h) after administration. The collected whole blood was anticoagulated with heparin sodium and centrifuged at 3000 g to obtain rat plasma samples, and methanol was added thereto to precipitate proteins. The drug concentration in rat plasma after administration was determined by HIPLC-MS/MS method. A drug concentration-time curve was plotted and the pharmacokinetic parameters were calculated. Pharmacokinetic behaviors of the compounds after administration in rats were described by means of the parameter estimation of non-compartmental model based on statistical moment theory.

PRMT5 = PRMT5 (Homo sapiens (Human), UniProt O14744); assay: radiometric assay for PRMT5 based on FlashPlate technology; format: biochemical; settings: PRMT5 5 nM, [3H]-SAM, 60 min at 25° C.; read-out: Enzymology (IC50)
Method: The radiometric assay for PRMT5 based on FlashPlate technology was adopted to determine IC50 of the test compound.
After dissolved in dimethyl sulfoxide respectively, the test compounds were added into an Echo Qualified 384-well plate and diluted to the desired concentrations. The diluted test compounds were transferred from the Echo Qualified 384-well plate to a 384-well reaction plate using an Echo 550 instrument, and dimethyl sulfoxide was transferred into both the control and blank wells. PRMT5 was added to 1×reaction buffer (including 10 mM Tris-HCl; pH 8.0; 0.01% Tween-20; 1 mM DTT) to form a 1.67×enzyme solution (at an enzyme concentration of 5 nM). A polypeptide substrate and [3H]-SAM were added to 1× reaction buffer to form a 2.5× substrate solution (the terminal concentrations of the substrates were 100 nM and 250 nM, respectively). At a volume of 15 μL/well, the 1.67× enzyme solution was added into wells of the 384-well reaction plate. In case of the blank wells, the enzyme solution was replaced with 15 μL of the 1× reaction buffer. The reaction plate was centrifuged at 1000 rpm for 1 min, and incubated at room temperature for 15 min. To each well of the 384-well reaction plate, 10 μL of the 2.5× substrate solution was added, centrifuged at 1000 rpm for 1 min, and reacted at 25° C. for 60 min. To each well of the 384-well reaction plate, 5 μL of reaction stop solution (which was […] cold SAM solution) was added to terminate the reaction. From each well of the test plate, 25 μL was measured and transferred to Flashplate and left at room temperature for 1 h. Thereafter, the Flashplate was washed with 0.1% Tween-20 solution three times. Readings were taken with MicroBeta 2. The data was converted into the inhibition rate data. Inhibition rate=(conversion ratecontrol well−conversion ratecompound well)/(conversion ratecontrol well−conversion rateblank well)×100%. The IC50curves were fitted using XLFit5.4.0.8. The fitting equation was as follows:Y=Bottom+(Top-Bottom)/(1+(IC50/X)^HillSlope).

Sequence of PRMT5 (O14744 whole entry): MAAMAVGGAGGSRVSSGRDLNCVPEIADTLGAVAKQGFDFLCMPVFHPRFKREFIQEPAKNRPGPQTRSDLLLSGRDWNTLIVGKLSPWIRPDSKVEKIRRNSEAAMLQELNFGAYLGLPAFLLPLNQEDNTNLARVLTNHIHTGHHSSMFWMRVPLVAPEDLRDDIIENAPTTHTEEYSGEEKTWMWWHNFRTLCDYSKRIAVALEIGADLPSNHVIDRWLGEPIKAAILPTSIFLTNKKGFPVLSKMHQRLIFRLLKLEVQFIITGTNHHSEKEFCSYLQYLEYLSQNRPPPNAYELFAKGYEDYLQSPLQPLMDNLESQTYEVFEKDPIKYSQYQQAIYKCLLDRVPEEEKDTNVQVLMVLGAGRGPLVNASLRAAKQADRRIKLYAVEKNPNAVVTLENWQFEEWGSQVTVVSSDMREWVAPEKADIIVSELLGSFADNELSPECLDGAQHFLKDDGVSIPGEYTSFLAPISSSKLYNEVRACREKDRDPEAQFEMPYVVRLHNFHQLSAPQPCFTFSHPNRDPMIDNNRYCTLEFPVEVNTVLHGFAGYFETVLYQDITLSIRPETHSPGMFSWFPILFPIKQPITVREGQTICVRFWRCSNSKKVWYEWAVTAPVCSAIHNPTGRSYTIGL
Sequence of PRMT5 (Q9BQA1 whole entry partner): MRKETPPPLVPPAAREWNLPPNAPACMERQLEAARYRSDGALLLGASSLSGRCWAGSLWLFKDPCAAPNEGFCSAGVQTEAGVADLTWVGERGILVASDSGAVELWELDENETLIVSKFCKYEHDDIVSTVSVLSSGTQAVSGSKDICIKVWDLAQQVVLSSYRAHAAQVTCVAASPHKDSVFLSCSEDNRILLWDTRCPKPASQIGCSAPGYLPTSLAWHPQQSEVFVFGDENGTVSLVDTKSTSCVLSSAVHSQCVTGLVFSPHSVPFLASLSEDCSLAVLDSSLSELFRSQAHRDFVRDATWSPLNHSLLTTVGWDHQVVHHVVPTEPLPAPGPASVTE

For CON=C(C)C(=O)N1CC2(CC(Nc3cc(C(=O)NC[C@H](O)CN4CCc5ccccc5C4)ncn3)C2)C1 [PR-10, (S)-N-(3-(3,4-dihydroisoquinolin-2(1H)-yl)-2-hydroxypropyl)-6-((2-(2-(methoxyimino)propanoyl)-2-azaspiro[3.3]heptan-6-yl)amino)pyrimidine-4-carboxamide], the IC50 [1] was 0.664 nM, the “d9 Tumor Volume (mm^3)” value (MV4-11 xenografts; 100 mg/kg BID, 9th day after administration) was 34.3 ± 29.2**## mm^3 and the “Tumor Weight” value (MV4-11 xenografts; 100 mg/kg BID, 11 days, tumors dissected at end) was 0.0153 ± 0.0105 g. The “Tumor weight inhibition rate (%)” value (MV4-11 xenografts; 100 mg/kg BID, 11 days, versus vehicle group) was 97.9%, the “animal death / drug toxicity observation” value (MV4-11 xenografts; 100 mg/kg BID, one animal died due to incorrect gavage) was “the death was not caused by drug toxicity” and the “d0 Tumor Volume (mm^3)” value (MV4-11 xenografts; d0, before grouping for administration (baseline)) was 164.8 ± 32.5 mm^3. For the same compound, the “RTV (d9)” value (MV4-11 xenografts; relative tumor volume = d9/d0 tumor volume, 100 mg/kg BID) was 0.2 ± 0.2, the AUC(0-t) (in vivo) was 2040 ng·h/mL and the Cmax (in vivo) was 1340 ng/mL. For the same compound, the Tmax (in vivo) was 25 min and the IC50 (PRMT5) was 16 nM.
